Assay results reported in patent US20160279101A1, “PHARMACEUTICAL COMPOSITION FOR TREATMENT OF PNEUMONIA ASSOCIATED WITH FUSARIUM FUNGUS” (priority 2013, published 2016).
In brackets after ≈: the same amount, converted by molar mass. Where a name gives a salt, the structure may show the parent alone.

Assays:
Format in all cases: cell-based
Trichomonas vaginalis = assay: Growth inhibition of Trichomonas vaginalis in Trichomonas Medium F (neutral red colour, microscopy); details: for MIC: clinically isolated Trichomonas vaginalis, read-out: minimum inhibitory concentration (MIC); for MIC / Color / Result of observation under the microscope: 72 hours; for Color: 37° C.; for Result of observation under the microscope: inverted microscope
Protocol: Among the compounds represented by General Formula (1), luliconazole was selected for investigation of the effect on Trichomonas vaginalis. That is, 5×10^6 cells of clinically isolated Trichomonas vaginalis were seeded in Trichomonas Medium F, manufactured by Fuji Pharma Industrial Co., Ltd., which contains neutral red as a marker (6.5 mL, contained in a tube). Preculture was performed for 72 hours (preculture). After confirming that the Trichomonas has grown to actively produce acid and to thereby cause changing of the color of neutral red to yellow, 100 μL of the obtained preculture liquid was added to Trichomonas Medium F to be used for main culture. To resulting mixture, 0.5 mL of each test liquid was further added. The number of Trichomonas cells in the preculture liquid at this time was 1.5×10^5 cells/mL. Three types of test liquids, that is, solutions of luliconazole in 10% methanol/saline solution at luliconazole concentrations of 200 μM (final concentration, 35.2 μM), 100 μM (final concentration, 17.6 μM) and 50 μM (final concentration, 8.8 μM), were provided. A control was prepared by adding 0.5 mL of a vehicle as a test liquid. As the vehicle, 10% methanol/saline solution (final concentration, 0 μM) was used. After the addition, each resulting mixture was stirred well, and culture was carried out at 37° C. for 72 hours. Thereafter, the color was judged, and the condition of Trichomonas cells was observed under an inverted microscope.
The same study as in Example 1 was carried out except that lanoconazole was used instead of luliconazole.

Fusarium oxysporum = assay: MIC by micro-liquid dilution method (Alamar Blue assay), Fusarium oxysporum; set-up: unit not given here; details: 2 clinical strains; 35° C., 72 hours; MIC = minimum concentration with IC not less than 80%
Protocol: (§1) The MICs of each type of antifungal agent against Fusarium oxysporum and Fusarium solani were determined. That is, each fungus was cultured at 35° C. for 72 hours using, as a medium, “RPMI 1640/MOPS liquid medium supplemented with 10% Alamar Blue (registered trademark) (pH 7.0)” (see Shinobu Ishigaki et al., The Journal of the Japanese Association for Infectious Diseases, vol. 74(3) (2000) pp. 221-230) according to the micro-liquid dilution method (Alamar Blue assay), which is in accordance with the CLSI standardization and the Japanese Society for Medical Mycology method. Thereafter, O.D. was measured for investigating color change of the oxidation-reduction indicator Alamar Blue, to determine the minimum inhibitory concentration (MIC). That is, the growth inhibition rate (IC) was determined based on the O.D. value, and the minimum concentration of the agent at which an IC of not less than 80% was achieved was determined as MIC. Two strains of Fusarium oxysporum (clinically separated strains; Teikyo University Institute of Medical Mycology), and 10 strains of Fusarium solani (clinically separated strains; Institute of Dermatology (Thailand) and Teikyo University Institute of Medical Mycology) were used.

Fusarium solani = assay: MIC by micro-liquid dilution method (Alamar Blue assay), Fusarium solani; set-up: unit not given here; details: 10 clinical strains; 35° C., 72 hours; MIC = minimum concentration with IC not less than 80%
Protocol: as §1

[1] = system: Chlamydia trachomatis (D/UW3/Cx); assay: Anti-intracellular parasite action: Chlamydia trachomatis cultured in HeLa 229 cells, fluorescent staining of inclusion bodies
Protocol: FIG. 1 is a diagram (photographs) illustrating the results of observation of chlamydial inclusion bodies after luliconazole treatment, which observation was carried out by fluorescent staining using a Chlamydia FA reagent “Seiken”.
Using Chlamydia trachomatis (D/UW3/Cx), the anti-intracellular parasite action was examined. That is, Chlamydia trachomatis was cultured using HeLa 229 cells as a host in the presence of a 2-fold dilution series of 8 to 64 μg/mL luliconazole. The culture was carried out using, as a medium, MEM supplemented with 1 μg/mL cyclohexamide and 8% heat-inactivated FBS, at 37° C. under 5% carbon dioxide for 72 hours. Thereafter, inclusion bodies were fluorescently stained in apple green using a Chlamydia FA reagent “Seiken” (manufactured by Denka Seiken Co., Ltd.), and observed under a fluorescence microscope.

[2] = final concentration 8.8 μM, neutral red marker
[3] = final concentration 17.6 μM, neutral red marker
[4] = final concentration 35.2 μM, neutral red marker (yellow = acid production by growing Trichomonas)

Row | MIC, F. oxysporum (2), lower line of each agent (range) (Fusarium oxysporum) | MIC, F. solani (10), lower line of each agent (range) (Fusarium solani) | Structure (SMILES) | further results
1 | 0.063-0.13 | 0.063-0.25 | N#C/C(=C1/SCC(c2ccccc2Cl)S1)n1ccnc1 (stereo not drawn) [lanoconazole, 4-(2-chlorophenyl)-1,3-dithiolan-2-ylidene-1-imidazolylacetonitrile] | MIC (Trichomonas vaginalis): ~17.6 µM (≈ 5.63 µg/mL); Color (Trichomonas vaginalis; [2]): Yellow; Color (Trichomonas vaginalis; [3]): Red; Color (Trichomonas vaginalis; [4]): Red; Result of observation under the microscope (Trichomonas vaginalis; final concentration 35.2 μM): No Trichomonas cell was found; growth of Trichomonas (Trichomonas vaginalis; same study as Example 1, no concentration stated): inhibit the growth of Trichomonas
2 | >4 | – | Clc1ccc(COC(Cn2ccnc2)c2ccc(Cl)cc2Cl)c(Cl)c1 (stereo not drawn) [MCZ, Miconazole nitrate] | –
3 | >4 | >4 | CCC(C)n1ncn(-c2ccc(N3CCN(c4ccc(OCC5COC(Cn6cncn6)(c6ccc(Cl)cc6Cl)O5)cc4)CC3)cc2)c1=O (stereo not drawn) [ITZ, Itraconazole] | –
4 | >4 | >4 | Clc1ccccc1C(c1ccccc1)(c1ccccc1)n1ccnc1 [CTZ, Clotrimazole] | –

More lines, now with the values behind:

Row | Structure (SMILES) | MIC, F. oxysporum (2), lower line of each agent (range) (Fusarium oxysporum) | MIC, F. solani (10), lower line of each agent (range) (Fusarium solani) | further results
5 | c1ccc(-c2ccc(C(c3ccccc3)n3ccnc3)cc2)cc1 (stereo not drawn) [BFZ, Bifonazole] | >4 | >4 | –
6 | C=C1CCN([C@H](C)[C@](O)(Cn2cncn2)c2ccc(F)cc2F)CC1 [EFCZ, Efinaconazole] | 0.25-1 | – | –
7 | C[C@@H]1[C@H](O)[C@@H](C)/C=C/C=C/C=C/C=C/C=C/C=C/C=C/[C@H](O[C@@H]2O[C@H](C)[C@@H](O)[C@H](N)[C@@H]2O)C[C@@H]2O[C@](O)(C[C@@H](O)C[C@@H](O)[C@H](O)CC[C@@H](O)C[C@@H](O)CC(=O)O[C@H]1C)C[C@H](O)[C@H]2C(=O)O [AMB, Amphotericin B] | – | 2-4 | –
8 | CC(=O)N1CCN(c2ccc(OCC3COC(Cn4ccnc4)(c4ccc(Cl)cc4Cl)O3)cc2)CC1 (stereo not drawn) [KCZ, Ketoconazole] | >4 | – | –
9 | OC(Cn1cncn1)(Cn1cncn1)c1ccc(F)cc1F [FCZ, Fluconazole] | >4 | >4 | –
10 | C[C@@H](c1ncncc1F)[C@](O)(Cn1cncn1)c1ccc(F)cc1F [VCZ, Voriconazole] | >4 | – | –
11 | CCC(C)(C)c1ccc(CC(C)CN2C[C@@H](C)O[C@@H](C)C2)cc1 (stereo partly drawn) [AMO, Amorolfine hydrochloride] | >4 | >4 | –
12 | N#C/C(=C1/SC[C@@H](c2ccc(Cl)cc2Cl)S1)n1ccnc1 [luliconazole, (R)-(−)-(E)-[4-(2,4-dichlorophenyl)-1,3-dithiolan-2-ylidene]-1-imidazolylacetonitrile] | 0.016-0.031 | 0.016-0.063 | growth of Trichomonas (Trichomonas vaginalis; 8.8 μM): inhibited the growth of Trichomonas; MIC (Trichomonas vaginalis): ~8.8 µM (≈ 3.12 µg/mL); Color (Trichomonas vaginalis; [2]): Yellow; Color (Trichomonas vaginalis; [3]): Red; Result of observation under the microscope (Trichomonas vaginalis; final concentration 17.6 μM): No Trichomonas cell was found; Color (Trichomonas vaginalis; [4]): Red; Result of observation under the microscope (Trichomonas vaginalis; final concentration 35.2 μM): No Trichomonas cell was found; observation of chlamydial inclusion bodies ([1]; 8 μg/mL, FIG. 1 panel (A)): chlamydial inclusion bodies were found; observation of chlamydial inclusion bodies ([1]; 16 μg/mL, FIG. 1 panel (B)): chlamydial inclusion bodies were found; observation of chlamydial inclusion bodies ([1]; 32 μg/mL, FIG. 1 panel (C)): no inclusion body was found; MIC ([1]; Chlamydia trachomatis, HeLa 229 host cells, 72 hours, 2-fold dilution series 8 to 64 μg/mL, read-out: MIC against Chlamydia trachomatis): 32 µg/mL (≈ 90.3 µM)
